# According to US6355799B1, “Substituted benzene compounds, process for their preparation, and herbicidal and defoliant compositions containing them” (ISK Americas Incorporated, priority 1997, dated 2002):
# What was measured:
# Assay type in all cases: in vivo
# [1] = test system: redroot pigweed (Amaranthus retroflexus, AMARE); assay: Pre-emerge test, greenhouse herbicide activity screening; settings: pre-emerge, rated 14 days after application, 0 = no damage, 100 = complete death
# Method in brief: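 Sandy loam pots; pre-emerge: sown 1 d pre-spray, surface-watered after, then bottom-watered. Post-emerge: sown 8–21 d before, 2–3 leaf stage, + 0.25% v/v NIS, bottom-watered. Acetone, 187 l/ha track spray, 15–1000 g ai/ha. 0–100 injury score, day 14.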
# [2] = test system: field corn (Zea mays L., var. Dekalb 535, CORN); assay: Pre-emerge test, crop safety; settings: pre-emerge, rated 14 days after application, 0 = no damage, 100 = complete death
# Method in brief: (§1)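 Rating: 0–100 visual injury, 14 DAA. Application: acetone, 187 l/ha, 15–1000 g ai/ha, flat-fan track sprayer with nozzle 40–45 cm above soil or canopy. Post-emerge runs used 0.25% v/v surfactant on 2–3 leaf plants.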
# [3] = test system: upland rice (Oryza sp., var. Tebonnet, RICE); assay: Pre-emerge test, crop safety; settings: pre-emerge, rated 14 days after application, 0 = no damage, 100 = complete death
# Method in brief: as §1
# [4] = test system: velvetleaf (Abutilon theophrasti, ABUTH); assay: Pre-emerge test, greenhouse herbicide activity screening; settings: pre-emerge, rated 14 days after application, 0 = no damage, 100 = complete death
# Method in brief: (§2)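 Fourteen days after spraying, crop and weed injury was graded visually from 0, no effect, to 100, every plant dead. Test substances were dissolved in acetone and applied at 15–1000 g ai/ha with a flat-fan nozzle. Application was either pre-emergence, one day after sowing, or post-emergence at the 2–3 leaf stage.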
# [5] = test system: lambsquarters (Chenopodium album, CHEAL); assay: as above; settings: pre-emerge, rated 14 days after application, 0 = no damage, 100 = complete death
# Method in brief: as §2
# [6] = test system: johnsongrass (Sorghum halepense, SORHA); assay: as above; settings: pre-emerge, rated 14 days after application, 0 = no damage, 100 = complete death
# Method in brief: as §2
# [7] = test system: green foxtail (Setaria viridis, SETVI); assay: as above; settings: pre-emerge, rated 14 days after application, 0 = no damage, 100 = complete death
# Method in brief: as §2
# [8] = test system: large crabgrass (Digitaria sanguinalis, DIGSA); assay: as above; settings: pre-emerge, rated 14 days after application, 0 = no damage, 100 = complete death
# Method in brief: as §2
# [9] = test system: barnyardgrass (Echinochloa crus-galli, ECHCG); assay: as above; settings: pre-emerge, rated 14 days after application, 0 = no damage, 100 = complete death
# Method in brief: as §2
# [10] = test system: sicklepod (Cassia obtusifolia, CASOB); assay: as above; settings: pre-emerge, rated 14 days after application, 0 = no damage, 100 = complete death
# Method in brief: as §2
# [11] = test system: ivyleaf morningglory (Ipomoea hederacea, IPOHE); assay: as above; settings: pre-emerge, rated 14 days after application, 0 = no damage, 100 = complete death
# Method in brief: as §2
# [12] = test system: redroot pigweed (Amaranthus retroflexus, AMARE); assay: Post-emerge test, greenhouse herbicide activity screening; settings: phytotoxicity rating 0-100 (0 no damage, 100 complete death), 14 days after application
# Method in brief: (§3)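 Compounds in acetone were track-sprayed at 15–1000 g ai/ha: pre-emergence onto soil sown the previous day, then top-watered to incorporate and later bottom-watered; post-emergence onto 2–3 leaf plants with 0.25% v/v surfactant, bottom-watered only. Ratings on a 0–100 phytotoxicity scale were taken at day 14.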
# [13] = test system: velvetleaf (Abutilon theophrasti, ABUTH); assay: as above; settings: phytotoxicity rating 0-100 (0 no damage, 100 complete death), 14 days after application
# Method in brief: as §3
# [14] = test system: lambsquarters (Chenopodium album, CHEAL); assay: as above; settings: phytotoxicity rating 0-100 (0 no damage, 100 complete death), 14 days after application
# Method in brief: as §3
# [15] = test system: johnsongrass (Sorghum halepense, SORHA); assay: as above; settings: phytotoxicity rating 0-100 (0 no damage, 100 complete death), 14 days after application
# Method in brief: as §3
# [16] = test system: green foxtail (Setaria viridis, SETVI); assay: as above; settings: phytotoxicity rating 0-100 (0 no damage, 100 complete death), 14 days after application
# Method in brief: as §3
# [17] = test system: large crabgrass (Digitaria sanguinalis, DIGSA); assay: as above; settings: phytotoxicity rating 0-100 (0 no damage, 100 complete death), 14 days after application
# Method in brief: as §3
# [18] = test system: barnyardgrass (Echinochloa crus-galli, ECHCG); assay: as above; settings: phytotoxicity rating 0-100 (0 no damage, 100 complete death), 14 days after application
# Method in brief: as §3
# [19] = test system: sicklepod (Cassia obtusifolia, CASOB); assay: as above; settings: phytotoxicity rating 0-100 (0 no damage, 100 complete death), 14 days after application
# Method in brief: as §3
# [20] = test system: ivyleaf morningglory (Ipomoea hederacea, IPOHE); assay: as above; settings: phytotoxicity rating 0-100 (0 no damage, 100 complete death), 14 days after application
# Method in brief: as §3
# [21] = test system: field corn (Zea mays L., var. Dekalb 535, CORN); assay: Post-emerge test, crop safety; settings: phytotoxicity rating 0-100 (0 no damage, 100 complete death), 14 days after application
# Method in brief: as §2
# [22] = test system: upland rice (Oryza sp., var. Tebonnet, RICE); assay: Post-emerge test, crop safety; settings: phytotoxicity rating 0-100 (0 no damage, 100 complete death), 14 days after application
# Method in brief: as §2
smiles,measurement,setting,value
COc1c(Cl)cc(F)c(-n2c(=O)cc(C(F)(F)F)n(C)c2=O)c1N(C(=O)C1CC1)C(=O)C1CC1 [2-18],"Pre-emerge Herbicidal Activity AMARE (phytotoxicity rating, scale 0-100)",[1]; 63 g ai/ha,40
same,"Pre-emerge Herbicidal Activity AMARE (phytotoxicity rating, scale 0-100)",[1]; 250 g ai/ha,100
same,"Pre-emerge crop damage CORN (phytotoxicity rating, scale 0-100)",[2]; 63 g ai/ha,0
same,"Pre-emerge crop damage CORN (phytotoxicity rating, scale 0-100)",[2]; 250 g ai/ha,0
same,"Pre-emerge crop damage RICE (phytotoxicity rating, scale 0-100)",[3]; 63 g ai/ha,0
same,"Pre-emerge crop damage RICE (phytotoxicity rating, scale 0-100)",[3]; 250 g ai/ha,20
same,"Pre-emerge Herbicidal Activity ABUTH (phytotoxicity rating, scale 0-100)",[4]; 63 g ai/ha,0
same,"Pre-emerge Herbicidal Activity ABUTH (phytotoxicity rating, scale 0-100)",[4]; 250 g ai/ha,100
same,"Pre-emerge Herbicidal Activity CHEAL (phytotoxicity rating, scale 0-100)",[5]; 63 g ai/ha,10
same,"Pre-emerge Herbicidal Activity CHEAL (phytotoxicity rating, scale 0-100)",[5]; 250 g ai/ha,90
same,"Pre-emerge Herbicidal Activity SORHA (phytotoxicity rating, scale 0-100)",[6]; 63 g ai/ha,0
same,"Pre-emerge Herbicidal Activity SORHA (phytotoxicity rating, scale 0-100)",[6]; 250 g ai/ha,0
same,"Pre-emerge Herbicidal Activity SETVI (phytotoxicity rating, scale 0-100)",[7]; 63 g ai/ha,0
same,"Pre-emerge Herbicidal Activity SETVI (phytotoxicity rating, scale 0-100)",[7]; 250 g ai/ha,80
same,"Pre-emerge Herbicidal Activity DIGSA (phytotoxicity rating, scale 0-100)",[8]; 63 g ai/ha,0
same,"Pre-emerge Herbicidal Activity DIGSA (phytotoxicity rating, scale 0-100)",[8]; 250 g ai/ha,0
same,"Pre-emerge Herbicidal Activity ECHCG (phytotoxicity rating, scale 0-100)",[9]; 63 g ai/ha,0
same,"Pre-emerge Herbicidal Activity ECHCG (phytotoxicity rating, scale 0-100)",[9]; 250 g ai/ha,0
same,"Pre-emerge Herbicidal Activity CASOB (phytotoxicity rating, scale 0-100)",[10]; 63 g ai/ha,0
same,"Pre-emerge Herbicidal Activity CASOB (phytotoxicity rating, scale 0-100)",[10]; 250 g ai/ha,40
same,"Pre-emerge Herbicidal Activity IPOHE (phytotoxicity rating, scale 0-100)",[11]; 63 g ai/ha,0
same,"Pre-emerge Herbicidal Activity IPOHE (phytotoxicity rating, scale 0-100)",[11]; 250 g ai/ha,40
same,Post-emerge Herbicidal Activity AMARE,[12]; 63 g ai/ha,0
same,Post-emerge Herbicidal Activity AMARE,[12]; 250 g ai/ha,95
same,Post-emerge Herbicidal Activity ABUTH,[13]; 63 g ai/ha,0
same,Post-emerge Herbicidal Activity ABUTH,[13]; 250 g ai/ha,40
same,Post-emerge Herbicidal Activity CHEAL,[14]; 63 g ai/ha,0
same,Post-emerge Herbicidal Activity CHEAL,[14]; 250 g ai/ha,50
same,Post-emerge Herbicidal Activity SORHA,[15]; 63 g ai/ha,0
same,Post-emerge Herbicidal Activity SORHA,[15]; 250 g ai/ha,0
same,Post-emerge Herbicidal Activity SETVI,[16]; 63 g ai/ha,0
same,Post-emerge Herbicidal Activity SETVI,[16]; 250 g ai/ha,0
same,Post-emerge Herbicidal Activity DIGSA,[17]; 63 g ai/ha,0
same,Post-emerge Herbicidal Activity DIGSA,[17]; 250 g ai/ha,0
same,Post-emerge Herbicidal Activity ECHCG,[18]; 63 g ai/ha,0
same,Post-emerge Herbicidal Activity ECHCG,[18]; 250 g ai/ha,0
same,Post-emerge Herbicidal Activity CASOB,[19]; 63 g ai/ha,0
same,Post-emerge Herbicidal Activity CASOB,[19]; 250 g ai/ha,10
same,Post-emerge Herbicidal Activity IPOHE,[20]; 63 g ai/ha,0
same,Post-emerge Herbicidal Activity IPOHE,[20]; 250 g ai/ha,30
same,Post-emerge Herbicidal Activity CORN (crop damage),[21]; 63 g ai/ha,0
same,Post-emerge Herbicidal Activity CORN (crop damage),[21]; 250 g ai/ha,0
same,Post-emerge Herbicidal Activity RICE (crop damage),[22]; 63 g ai/ha,0
same,Post-emerge Herbicidal Activity RICE (crop damage),[22]; 250 g ai/ha,0
